Laboratory results: PubChem BioAssay (NCI)
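Dose response: 5 concentrations. Exposure: 48 h. Format: 96-well plates. Endpoint: linear interpolation; highest concentration if not reached. TGI: concentration producing complete growth inhibition.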

What was measured:
Experiment in all cases: growth of human tumour cells (NCI), 48 h
SR leukemia = system: SR leukemia
RPMI-8226 leukemia = system: RPMI-8226 leukemia
SW-620 colon = system: SW-620 colon
ACHN renal = system: ACHN renal
CAKI-1 renal = system: CAKI-1 renal
COLO 205 colon = system: COLO 205 colon
HT29 colon = system: HT29 colon
HCT-15 colon = system: HCT-15 colon
MALME-3M melanoma = system: MALME-3M melanoma
RXF 393 renal = system: RXF 393 renal

| Compound | TGI (SR leukemia) [µM] | TGI (RPMI-8226 leukemia) [µM] | TGI (SW-620 colon) [µM] | TGI (ACHN renal) [µM] | TGI (CAKI-1 renal) [µM] | TGI (COLO 205 colon) [µM] | TGI (HT29 colon) [µM] | TGI (HCT-15 colon) [µM] | TGI (MALME-3M melanoma) [µM] | TGI (RXF 393 renal) [µM] |
| --- | --- | --- | --- | --- | --- | --- | --- | --- | --- | --- |
| COC(=O)NC1C(C)OC(OC2C/C=C(/C)C3C=CC4C(OC5CC(OC6CC(OC7CC(O)C(O)C(C)O7)C(OC7CC(O)C(OC)C(C)O7)C(C)O6)C(O)C(C)O5)C(C)CC(C)C4C3(C)/C(O)=C3\C(=O)OC4(CC(C)C(CO)=CC4/C=C\2C)C3=O)CC1(C)[N+](=O)[O-] (stereo unspecified) | 24.2 | 7.66 | > 100 | 27.2 | 41.1 | 36.2 | 20.5 | 36.4 | – | – |
| CC1C(=O)C(C)C(c2ccco2)N(N=O)C1c1ccco1 (stereo unspecified) | – | > 100 | > 100 | – | > 100 | > 100 | > 100 | > 100 | > 100 | > 100 |
| Nc1nc(OCC2CCCCC2)c2[nH]cnc2n1 | > 59.1 | 55.5 | > 100 | 38.4 | 58 | > 56.9 | 48.5 | > 100 | > 50.4 | 57.1 |
| Cc1[nH]n(-c2ccccc2)c(=O)c1C(N(CCc1ccccc1)C1=NCC(C)S1)(C(F)(F)F)C(F)(F)F (stereo unspecified) | 90.4 | – | 95.3 | 79.3 | > 100 | 18.7 | > 100 | 41.1 | 97.9 | – |
| CC(=O)OCC1OC(Oc2cc(C)c(O)cc2C/C=C(\C)CC/C=C(\C)C[C@@H](C=C(C)C)OC(C)=O)C(O)C(OC(C)=O)C1OC(C)=O (stereo partly specified) | – | 24.1 | > 50 | > 50 | > 50 | 16.8 | > 50 | > 50 | > 50 | 34.4 |
| c1c2c(cc3c1OCO3)-c1cc3ccc4c(c3c[n+]1CC2)OCO4 | > 12.5 | > 12.5 | > 12.5 | > 12.5 | > 12.5 | > 10.8 | > 12.5 | 4.77 | 3.04 | > 12.5 |
| O=C(NC(Cc1ccc(I)cc1)C(=O)O)c1ccc(Cl)cc1 (stereo unspecified) | – | > 100 | > 100 | – | > 100 | > 100 | > 100 | > 100 | > 100 | – |
| CN(C)c1ccc(/C=c2/c3ccccc3n3c2cc(NC(=O)NCCC[N+](C)(C)C)[n+]3C)cc1 | > 100 | > 100 | > 100 | > 100 | > 100 | > 100 | > 100 | > 100 | > 100 | > 100 |
| Oc1ccc(-c2nc3cc(F)ccc3s2)cc1 | 16 | 60.5 | > 100 | 40.7 | 43.9 | 33.9 | 56.7 | 68.2 | 43.3 | 71.9 |
| CNC(C)Cc1ccccc1OC (stereo unspecified) | – | > 100 | > 100 | > 100 | > 100 | > 100 | > 100 | > 100 | > 100 | > 100 |
| C[n+]1c2ccccc2c(CNC(CS)C(=O)O)c2ccccc21 (stereo unspecified) | 32.4 | 50.5 | > 100 | > 100 | 70.5 | 47.8 | > 100 | 55.1 | 92.1 | 59.8 |
| O=c1c2cc(S(=O)(=O)O)ccc2nc(COc2ccc(Oc3ccc(Cl)cc3Cl)cc2)n1C(=S)Nc1ccc(Cl)cc1 | 22.9 | 81.5 | 49.4 | 64.7 | > 100 | 34.1 | 36.4 | 50.5 | 49 | 31 |
| CCSc1nc(-c2cccs2)nc2ccc(I)cc12 | > 100 | > 100 | > 100 | > 100 | > 100 | > 100 | > 100 | > 100 | – | > 100 |
| O=C1OC2(OC2c2ccc(Cl)cc2)c2ccccc21 (stereo unspecified) | > 100 | > 100 | > 100 | > 100 | > 100 | > 100 | > 100 | > 100 | > 100 | > 100 |
| COC(=O)/C=C1\CCCN1CCc1cc2c(cc1CC#N)OCO2 | > 100 | > 100 | > 100 | > 100 | > 100 | > 100 | > 100 | > 100 | > 100 | > 100 |
| COC(=O)c1ccccc1C1=C([N+](=O)[O-])C(c2cccc(Br)c2)C(C#N)=C(N)O1 (stereo unspecified) | > 100 | > 100 | 71.4 | 43.4 | – | > 100 | > 100 | 41 | – | 41.9 |
